Data taken from ChEMBL document CHEMBL1126610, “Amidinium cation as a mimic of allylic carbocation: synthesis and squalene synthetase inhibitory activity of an amidinium analog of a carbocation intermediate” (J Med Chem, 1993).

Tests used:
[1] = target: T1, Squalene synthase (Rattus norvegicus, UniProt Q02769); assay: Inhibitory activity against squalene synthetase in rat liver microsomal assay; format: microsomes
T1 sequence (Q02769 whole entry): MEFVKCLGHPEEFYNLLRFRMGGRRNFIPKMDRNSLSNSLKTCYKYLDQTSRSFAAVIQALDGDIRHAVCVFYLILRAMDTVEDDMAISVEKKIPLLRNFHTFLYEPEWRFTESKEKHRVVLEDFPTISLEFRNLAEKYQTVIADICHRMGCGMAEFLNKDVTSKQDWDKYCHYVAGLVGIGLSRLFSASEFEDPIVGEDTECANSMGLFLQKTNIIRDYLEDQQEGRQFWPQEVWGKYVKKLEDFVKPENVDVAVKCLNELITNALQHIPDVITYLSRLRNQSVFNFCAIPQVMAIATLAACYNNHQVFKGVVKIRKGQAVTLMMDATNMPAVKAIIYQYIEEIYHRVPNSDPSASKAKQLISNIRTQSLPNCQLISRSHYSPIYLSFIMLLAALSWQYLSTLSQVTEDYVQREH

[2] = target: T1, Squalene synthase; assay: Inhibitory activity against squalene synthetase in the presence of inorganic pyrophosphate in rat liver microsomal assay; format: microsomes

IC50 [1]: 6.9 µM | IC50 [2]: 0.1 µM
Structure (SMILES): CC(C)=CCC/C(C)=C/CC/C(C)=C/C/N=C/N(C)CC/C=C(\C)CCC=C(C)C
